This is an account of results in patent US20260132103A1, “Bumetanide Derivatives for the Therapy of Stroke and Other Neurological Diseases/Disorders Involving NKCCs” (University of Pittsburgh - Of the Commonwealth System of …, priority 2018, published 2026).

For experiment [1], the system named is transient focal cerebral ischemia (tMCAO) in mice. The experiment is described as follows: Corner test after tMCAO. The class given is in vivo, mouse. Conditions: 1-14 days after tMCAO. An excerpt: FIGS. 2A-2D: Efficacy of NKCC1 inhibitors on improving neurological function in mice after tMCAO (see Example 3). (A) Neurological score, (B) corner test, (C) foot-fault test, and (D)-(E) adhesive tape test during 1-14 day after tMCAO. Data are mean±SD, n=4-9. *p<0.05 for DMSO vs STS66, **p<0.05 for DMSO vs STS5, ***p<0.05 for DMSO vs BMT, #p<0.05 for BMT vs STS66, ###p<0.05 for STS5 vs STS66.
Transient focal cerebral ischemia was induced in mice by intraluminal occlusion of the left middle cerebral artery (MCA) for 50 min as described previously (Chen H et al., 2005). Mice were anesthetized with 3% isoflurane in 70%: 30% N2O/O2 until they were unresponsive to the tail pinch test. Animals were then fitted with a nose cone blowing 1.5% isoflurane for anesthesia maintenance. The left common carotid artery was exposed and the occipital artery branches of the external carotid artery were isolated and coagulated. The internal carotid artery was isolated and the extracranial branch was dissected and ligated. […]
Neurological functional deficits in mice were determined by the corner test. […]
The numbers of left and right turns of each mouse during 10 trials were recorded, and turning movements that were not part of a rearing movement were not scored (Zhang L, et al., 2002).

Experiment [2] concerns permanent focal cerebral ischemia (pdMCAO) in AngII-induced hypertensive mice. The experiment is described as follows: Brain infarct volume and swelling after pdMCAO in AngII-induced hypertensive mice. It counts as in vivo, mouse. Conditions: 24 h post-pdMCAO, i.p., half dose at 3 h and 8 h after pdMCAO. On the procedure:
FIG. 3: Effects of NKCC1 inhibitors against the worsened ischemic stroke in AngII-induced hypertensive mice after pdMCAO (see Example 3). (A) Experimental protocol in AngII-induced hypertensive C57/B6 mice. Permanent distal middle cerebral artery occlusion (pdMCAO) was induced in mice at day 14 post-AngII infusion. DMSO, BMT or STS66 was administered in mice via i.p. with the initial half dose at 3 h and the second half dose at 8 h after pdMCAO. (B) Representative TTC-stained mouse coronal brain sections at 2-8 mm posterior of the frontal pole were shown. TTC staining was performed at 24 h post pdMCAO. Scale: 5 mm. (C) Brain infarct volume was calculated. Data are mean±SD. Saline (n=4), AngII (n=5); *p<0.05 vs. saline control.
Permanent focal cerebral ischemia was induced by permanent occlusion of the distal middle cerebral artery (pdMCAO) in mice (Suenaga J, et al., 2015). Under anesthesia as described above, a skin incision at the midline of the neck was made. After being separated from the vagal nerve, the left CCA was exposed and occluded by ligation and the skin was sutured. Another skin incision (1 cm) was made between the left eye and the ear using fine operation scissors. The temporal muscle was identified and detached from the skull in its apical and dorsal part without totally removing the muscle by using the forceps. The MCA below the transparent skull in the rostral part of the temporal area, dorsal to the retro-orbital sinus was identified. If the MCA bifurcation is not visible (due to an anatomical normal variation), the vessel most rostral was identified. The skull above the MCA branch was thinned out with the drill until it has a thin and translucent texture. The artery, proximal and distal to the MCA bifurcation, was coagulated with the electrocoagulation forceps (in a bipolar mode at 7 W). The temporal muscle was relocated to its position and the burr hole was covered with wax and the skin wound was sutured and infiltrated with analgesia bupivacaine (100 μl 0.25%) topically. The animal was placed in a cage and monitored for recovery from anesthesia. […]
At 24 h post-reperfusion, mice were anesthetized with 5% isoflurane and then decapitated. […] Ischemic lesions were traced in each slice in a blinded manner, and the total volume of infarction was calculated with correction for edema, as described by Swanson et al., 1990 using ImageJ software. […] Brain swelling was determined with the following formula. […]
The efficacy of NKCC1 inhibitors was then tested in AngII-induced hypertensive mice after permanent MCAO model (pdMCAO), which is more clinically relevant to the majority ischemic stroke patients (McBride D W, et al., 2017). Brain infarct volume and swelling were measured at 24 h after pdMCAO. […]

In the case of `CCCCNc1cc(C(=O)O)cc(S(N)(=O)=O)c1Oc1ccccc1` [BMT, 3-(butylamino)-4-phenoxy-5-sulfamoylbenzoic acid, reference compound], the corner test outcome in experiment [1] is “exhibited neuroprotective effects”. Further, in experiment [2], the “brain swelling (edema)” value is recorded as 7.1±1.1% and the infarct volume is on record as 22.4±2.9 mm^3.
On the same counts, the results for `CCCCNc1cc(CNCC(F)(F)F)cc(S(N)(=O)=O)c1Oc1ccccc1` [STS66, 3-(Butylamino)-2-phenoxy-5-[(2,2,2-trifluoroethylamino)methyl]benzenesulfonamide] are “definite superior effects at every testing day”, 2.4±1.1% and 13.3±2.5 mm^3.
